Data reported in patent publication US20040137023A1, “5-Cholesten-3beta, 25-diol-7-one, esters and ethers thereof, particularly for the treatment of dry skin and scalp” (L'OREAL, priority 2002, published 2004).

System: immortalized human sebocytes derived from the SZ95 line
Assay: Lipogenesis in immortalized human sebocytes in culture (Nile red fluorescence, neutral lipids)
Format: cell-based
Conditions: for LIPID VARIATION (relative to the control): treatment for 2 days, 0.1% DMSO, Nile red 485-540 nm
Method: 5-Cholesten-3β,25-diol-7-one was tested, in comparison with 7-oxocholesterol and 25-hydroxy-cholesterol, on a model of immortalized human sebocytes in culture, derived from the SZ95 line described in Zouboulis, C. C., Seltmann, H., Neitzel, H. and Orfanos, C. E., Establishment and Characterization of an Immortalized Human Sebaceous Gland Cell Line, J. Invest. Dermatol., 113, 1011-1020 (1999).
The test consisted in measuring the amount of lipids produced by the sebocytes of the line (at confluence), in the presence or absence of active agents diluted in DMSO, such that the final amount of DMSO in the culture medium is 0.1%. After treatment for 2 days, the adherent cells are treated with Nile red (1 μg/ml). The lipid content is then quantified by measuring the fluorescence of the dye (excitation/emission pair: 485-540 nm for the neutral lipids).
The tests are performed in sixplicate and the experiment is repeated four times.
In parallel, proliferation tests (MUH) and cell viability tests (LDH) make it possible to check that the effects obtained are not associated with an appreciable change in these biological parameters.

Row | Compound | LIPID VARIATION (relative to the control) (test compound 10^−4 M) | LIPID VARIATION (relative to the control) (test compound 10^−5 M) | increase in the lipid content of the sebum (10^−5 M, same test)
1 | CC(C)CCC[C@@H](C)[C@H]1CC[C@H]2[C@@H]3C(=O)C=C4C[C@@H](O)CC[C@]4(C)[C@H]3CC[C@]12C [7-Oxocholesterol, 7-oxocholesterol] | +20% |  | 
2 | C[C@H](CCCC(C)(C)O)C1CCC2C3C(=O)C=C4C[C@@H](O)CC[C@]4(C)C3CC[C@@]21C (stereo partly drawn) [5-Cholesten-3β,25-diol-7-one] | +90% | +85% | 
3 | C[C@H](CCCC(C)(C)O)[C@H]1CC[C@H]2[C@@H]3CC=C4C[C@@H](O)CC[C@]4(C)[C@H]3CC[C@]12C [25-OH cholesterol, 25-hydroxy-cholesterol] | 0% |  | 
4 | C[C@]12CC[C@H](O)CC1=CC[C@@H]1[C@@H]2CC[C@]2(C)C(=O)CC[C@@H]12 [DHEA] |  |  | 13%
